Molecular target: T1, Induced myeloid leukemia cell differentiation protein Mcl-1 [172-327] (Homo sapiens, UniProt Q07820)
T1 construct: 172-327
Assay: Binding Assay

T1 sequence (Q07820 172-327): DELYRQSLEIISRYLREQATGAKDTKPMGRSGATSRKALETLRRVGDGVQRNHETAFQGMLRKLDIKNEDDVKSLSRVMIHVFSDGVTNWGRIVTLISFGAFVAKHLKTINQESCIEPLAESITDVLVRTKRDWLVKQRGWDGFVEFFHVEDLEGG

Ki [µM] | Compound
< 0.1 | Cc1cc(OCCCc2c(C(=O)NS(=O)(=O)c3ccccc3)[nH]c3c(-c4c(COc5ccccn5)nn(C)c4C)cccc23)cc(C)c1Cl [US10844032, Example 306]
< 0.1 | Cc1cc(OCCCc2c(C(=O)NS(=O)(=O)c3ccccc3)[nH]c3c(-c4c(COc5cccnc5)nn(C)c4C)cccc23)cc(C)c1Cl [US10844032, Example 307]
